Laboratory results reported in BindingDB's records for doi:10.1021/jm050520a (Schering-Plough Research Institute, 2006).
Numbered stars: 1 amine (or outer) side, 2 acyl side, 3 side chain; on linkers, the order of the positions; unused ones are H or OH. Square brackets hold non-standard residues; d marks the D form. Peptide text beside a SMILES is read from it. * marks the point of attachment. X1 = CCCC(N[*:1])C(=O)C(=O)[*:2]; Tic = O=C(O)[C@@H]1Cc2ccccc2CN1; Chg = N[C@H](C(=O)O)C1CCCCC1; Phg = N[C@H](C(=O)O)c1ccccc1; Boc = CC(C)(C)OC(=O)*

Biological target: Genome polyprotein (Hepatitis C virus genotype 1a (isolate H77), UniProt P27958)
Experiment: Continuous Spectrophotometric Assay
Settings: pH 6.5; 30 °C
Description: Proteolytic cleavage of the ester linkage between the Nva (L-norvaline) and the chromophore (PAP) was monitored for change in absorbance at 370 nm. Initial velocities were determined using linear regression and kinetic constants were obtained by fitting the data to the Michaelis-Menten equation.

Chain of Genome polyprotein (P27958 1027-1657 limits assumed): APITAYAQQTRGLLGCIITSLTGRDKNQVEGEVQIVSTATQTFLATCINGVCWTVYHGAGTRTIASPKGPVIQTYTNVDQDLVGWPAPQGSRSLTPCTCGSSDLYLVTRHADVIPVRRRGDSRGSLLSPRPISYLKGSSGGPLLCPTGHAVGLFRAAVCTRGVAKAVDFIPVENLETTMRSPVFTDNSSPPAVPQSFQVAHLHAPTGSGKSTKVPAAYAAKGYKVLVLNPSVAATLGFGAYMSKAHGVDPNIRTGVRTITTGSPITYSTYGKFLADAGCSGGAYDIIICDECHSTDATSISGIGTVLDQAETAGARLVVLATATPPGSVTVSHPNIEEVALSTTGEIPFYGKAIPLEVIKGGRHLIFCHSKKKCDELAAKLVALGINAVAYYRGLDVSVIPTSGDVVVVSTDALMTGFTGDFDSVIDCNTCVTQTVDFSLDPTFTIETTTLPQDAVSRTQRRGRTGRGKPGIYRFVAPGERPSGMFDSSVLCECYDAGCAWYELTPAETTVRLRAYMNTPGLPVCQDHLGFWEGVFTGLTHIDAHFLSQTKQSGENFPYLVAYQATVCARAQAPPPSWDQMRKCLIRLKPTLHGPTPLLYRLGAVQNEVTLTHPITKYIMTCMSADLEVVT

Compound: CCCC(NC(=O)[C@@H]1Cc2ccccc2CN1C(=O)[C@@H](NC(=O)OC(C)(C)C)C1CCCCC1)C(=O)C(=O)NCC(=O)N[C@H](C(=O)N(C)C)c1ccccc1 (stereo partly drawn) [tert-butyl N-[(1S)-1-cyclohexyl-2-[(3S)-3-({1-[({[(S)-(dimethylcarbamoyl)(phenyl)methyl]carbamoyl}methyl)carbamoyl]-1-oxopentan-2-yl}carbamoyl)-1,2,3,4-tetrahydroisoquinolin-2-yl]-2-oxoethyl]carbamate] (Boc-[Chg][Tic][X1]G[Phg]-NMe2)
- Ki: 1200 nM
